Here are results for 31 compounds from patent US9242933B2 (AbbVie Deutschland GmbH & Co. KG, priority 2007, dated 2016).

For this experiment, the target named is T1, human mGlu2 receptor (Homo sapiens, UniProt Q14416).
T1 construct: expressed in transfected cells; host or cells: HEK293
T1 sequence (Q14416 19-872): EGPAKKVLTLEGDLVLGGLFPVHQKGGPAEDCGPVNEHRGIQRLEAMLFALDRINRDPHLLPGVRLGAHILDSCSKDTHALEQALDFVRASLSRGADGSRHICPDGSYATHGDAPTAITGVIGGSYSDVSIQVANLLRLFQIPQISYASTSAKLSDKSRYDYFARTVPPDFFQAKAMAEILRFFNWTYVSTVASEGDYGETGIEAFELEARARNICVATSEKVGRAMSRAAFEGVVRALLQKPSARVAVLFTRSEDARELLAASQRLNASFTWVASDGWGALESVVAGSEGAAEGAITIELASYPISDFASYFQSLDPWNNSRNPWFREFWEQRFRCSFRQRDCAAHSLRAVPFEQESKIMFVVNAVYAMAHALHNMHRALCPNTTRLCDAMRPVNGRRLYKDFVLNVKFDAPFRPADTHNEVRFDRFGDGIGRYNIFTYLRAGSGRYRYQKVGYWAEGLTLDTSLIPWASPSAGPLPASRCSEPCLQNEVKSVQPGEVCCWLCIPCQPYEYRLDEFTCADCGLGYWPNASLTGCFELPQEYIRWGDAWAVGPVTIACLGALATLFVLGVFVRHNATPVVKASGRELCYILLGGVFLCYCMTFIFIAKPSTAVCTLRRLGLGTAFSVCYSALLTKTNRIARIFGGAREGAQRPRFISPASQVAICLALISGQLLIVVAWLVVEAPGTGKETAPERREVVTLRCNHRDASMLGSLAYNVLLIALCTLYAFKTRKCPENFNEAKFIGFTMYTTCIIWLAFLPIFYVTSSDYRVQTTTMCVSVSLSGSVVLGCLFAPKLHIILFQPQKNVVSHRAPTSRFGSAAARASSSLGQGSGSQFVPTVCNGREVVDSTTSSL
Nature of the experiment: FLIPR intracellular Ca2+ assay, potentiation of glutamate response in HEK293 clone expressing mGlu2 receptor, rGLAST and Galpha16. It is filed as cell-based. As to conditions: 1 μM glutamate added ten minutes after test compound, HEK293 cells with human mGlu2, rGLAST, Galpha16, read-out: EC50 values of potentiation effect to glutamate. From the text:
The compounds of the present invention can be tested e.g. by evaluating intracellular Ca^2+ concentrations in cells permanently expressing human mGlu receptor, the rat glutamate transporter rGLAST and the Galpha16 subunit of the G-protein complex under standard conditions in a fluorometric imaging plate reader (FLIPR, Molecular Devices, Union City, Calif. 94587, USA) by measuring the response of the cells to a test compound in the absence of presence of glutamate. The FLIPR assay is a common functional assay to monitor native or recombinant Galphaq-coupled receptors, and native or recombinant receptors normally linked to other G-protein signalling cascades, which are coupled to calcium through co-expression of an alpha subunit of a promiscuous or chimeric G-protein. In the assay the increase of intracellular calcium is measured through a calcium-dependent fluorescent dye (e.g. Fluo-4 AM) in the FLIPR instrument.
For the purpose of the present study, a cell line permanently expressing a human mGlu receptor, such as the mGlu2 receptor, the rat glutamate transporter rGLAST and the GalphaG16 may be generated by transfection as described in the examples. For selection of a suitable cell clone and also the subsequent measurements, the selected clone the cells will be plated on suitable multiwell plates in a suitable medium (e.g. DMEM Glutamax (GIBCO #21885-025)/10% dialyzed FCS). Cells may be selected by gentamycin treatment as described in the examples. Cells will then be loaded with a suitable Ca^2+ sensitive fluorescence dye, e.g. with 2 μM Fluo-4 AM (Molecular Probes, F14201). Cells will then be washed with a suitable buffer (e.g. HEPES) and the thus treated plates will be measured in a fluorometric imaging plate reader (e.g. FLIPR, Molecular Devices, Union City, Calif. 94587, USA).
The compounds of the present invention were tested in the above-described FLIPR assay using the selected cell clone. Increased intracellular calcium levels were quantified following addition of test compound (agonism), as well as following addition of a submaximal concentration of glutamate (potentiation).
For the determination of the effect of the test compound by itself (agonism) or by increasing the response to a submaximal concentration (e.g. 1 μM) of glutamate (potentiation), the resulting signal is determined by subtraction of the background fluorescence from the maximal fluorescent peak height of the respective response. In the FLIPR instrument the compound is given to the cell and its fluorescence response quantified by the FLIPR instrument (agonism). The concentration at which the compound exerts half its maximal effect is named the ‘effective concentration 50’ or ‘EC50’. The maximal effect induced by the test substance is normalized to the maximal effect exerted by 100 μM glutamate (set at 100%).
After addition of the test compound to the plate, a submaximal concentration of glutamate (e.g. 1 μM glutamate) will be added. A potentiator enhances the response of the receptor to glutamate. The response to glutamate in the presence of test compound is quantified. The concentration at which the test compound is able to exert half its maximal potentiation effect to glutamate is named the ‘EC50’. The maximal response to the submaximal concentration of glutamate (e.g. 1 micromolar glutamate) in the presence of test compound is normalized to the maximal effect exerted by 100 micromolar glutamate (set at 100%). Least squares curve fitting with a four-parameter equation is then applied to the resulting dose-response curve to determine the resulting EC5O values (Graph Pad Prism).
For the purpose of the present study, a cell line permanently expressing the human mGlu2 receptor, the rat glutamate transporter rGLAST and the alpha subunit of G16 was generated by transfection. […]
A word on the EC50: it is the concentration at which the effect is half-maximal. In the case of `CCCCC(=O)c1ccc(OCc2c[nH]nc2-c2ccc(C(F)(F)F)cc2)cc1` [Example 490, 1-{4-[3-(4-Trifluoromethyl-phenyl)-1H-pyrazol-4-ylmethoxy]-phenyl}-pentan-1-one], the EC50 is < 1000 nM.
For the compound `CCCC(=O)c1cccc(N(Cc2cccnc2)S(=O)(=O)CC(F)(F)F)c1` [Example 390, 2,2,2-Trifluoro-ethanesulfonic acid (3-butyryl-phenyl)-pyridin-3-ylmethyl-amide], the EC50 was < 1000 nM.
As for `CCCC(=O)c1ccc(NCc2c(C)nn(C)c2C)cc1` [Example 211, 1-{4-[(1,3,5-Trimethyl-1H-pyrazol-4-ylmethyl)-amino]-phenyl}-butan-1-one], the EC50 fell in the range of 1000 to 10000 nM.
`CCCC(=O)c1ccc(NCc2c[nH]nc2CCC)cc1` [Example 476, 1-{4-[(3-Propyl-1H-pyrazol-4-ylmethyl)-amino]-phenyl}-butan-1-one]: the concentration giving a half-maximal response (EC50) fell in the range of 1000 to 10000 nM.
Regarding `O=C1c2ccc(OCc3c[nH]nc3-c3cccc(C(F)(F)F)c3)cc2CN1CC(F)(F)F` [Example 569, 2-(2,2,2-Trifluoro-ethyl)-5-[3-(3-trifluoromethyl-phenyl)-1H-pyrazol-4-ylmethoxy]-2,3-dihydro-isoindol-1-one], the EC50 was < 1000 nM.
With `O=C1c2ccc(OCc3c[nH]nc3-c3ccc(C(F)(F)F)cc3)cc2CN1c1ccccc1` [Example 589, 2-Phenyl-5-[3-(4-trifluoromethyl-phenyl)-1H-pyrazol-4-ylmethoxy]-2,3-dihydro-isoindol-1-one] the figure was 1000 to 10000 nM; with `CCCC(=O)c1ccc(NCc2ccc(OC3CCCC3)nc2)cc1` [Example 313, 1-{4-[(6-Cyclopentyloxy-pyridin-3-ylmethyl)-amino]-phenyl}-butan-1-one], 1000 to 10000 nM.
The value for `O=C1c2ccc(OCc3c[nH]nc3-c3cccc(C(F)(F)F)c3)cc2CN1CCBr` [Example 565, 2-(2-Bromo-ethyl)-5-[3-(3-trifluoromethyl-phenyl)-1H-pyrazol-4-ylmethoxy]-2,3-dihydro-isoindol-1-one] was < 1000 nM; that for `CCCC(=O)c1ccc(NCc2n[nH]c3ccccc23)cc1` [Example 215, 1-{4-[(1H-Indazol-3-ylmethyl)-amino]-phenyl}-butan-1-one] was 1000 to 10000 nM.
The value for `CCCC(=O)c1ccc(NCc2c(C)nn(C(C)(C)C)c2C)cc1` [Example 58, 1-{4-[(1-tert-Butyl-3,5-dimethyl-1H-pyrazol-4-ylmethyl)amino]phenyl)butan-1-one] was 1000 to 10000 nM; that for `CCCN1Cc2cc(OCc3c[nH]nc3-c3ccc(Cl)cc3)ccc2C1=O` [Example 534, 5-[3-(4-Chloro-phenyl)-1H-pyrazol-4-ylmethoxy]-2-propyl-2,3-dihydro-isoindol-1-one] was < 1000 nM; that for `CC(C)(C)c1n[nH]cc1CNc1ccc(OCc2ccccn2)cc1` [Example 285, (3-tert-Butyl-1H-pyrazol-4-ylmethyl)-[4-(pyridin-2-ylmethoxy)-phenyl]-amine] was 1000 to 10000 nM.
Turning to `CC(=O)c1ccc2c(c1)CCN2Cc1c[nH]nc1-c1ccc(C(F)(F)F)cc1` [Example 507, 1-{1-[3-(4-Trifluoromethyl-phenyl)-1H-pyrazol-4-ylmethyl]2,3-dihydro1H-indol-5-yl}-ethanone], the EC50 is 1000 to 10000 nM.
The value for `CCN1Cc2cc(OCc3c[nH]nc3-c3ccc(Cl)cc3)ccc2C1=O` [Example 562, 5-[3-(4-Chloro-phenyl)-1H-pyrazol-4-ylmethoxy]-2-ethyl-2,3-dihydro-isoindol-1-one] was < 1000 nM.
Turning to `CCCCN1Cc2cc(OCc3c[nH]nc3-c3ccc(F)cc3)ccc2C1=O` [Example 548, 2-Butyl-5-[3-(4-fluorophenyl)-1H-pyrazol-4-ylmethoxy]-2,3-dihydro-isoindol-1-one], the EC50 was < 1000 nM.
The value for `CCCN1Cc2cc(NCc3c[nH]nc3-c3ccc(F)cc3)ccc2C1=O` [Example 579, 5-{[3-(4-Fluorophenyl)-1H-pyrazol-4-ylmethyl]-amino}-2-propyl-2,3-dihydro-isoindol-1-one] was < 1000 nM; that for `O=C1c2ccc(OCc3c[nH]nc3-c3cccc(C(F)(F)F)c3)cc2CN1CCC(F)(F)F` [Example 538, 5-[3-(3-Trifluoromethyl-phenyl)-1H-pyrazol-4-ylmethoxy]-2-(3,3,3-trifluoro-propyl)-2,3-dihydro-isoindol-1-one] was < 1000 nM.
In the case of `CCCC(=O)c1ccc(NCc2c(C(F)(F)F)nn(C)c2Cl)cc1` [Example 53, 1-(4-{[5-Chloro-1-methyl-3-(trifluoromethyl)-1H-pyrazol-4-yl]methylamino}phenyl)butan-1-one], the EC50 lay within 1000 to 10000 nM.
In the case of `CCCC(=O)c1ccc(NCc2c[nH]nc2-c2cccc(Cl)c2)cc1` [Example 509, 1-(4-{[3-(3-Chloro-phenyl)-1H-pyrazol-4-ylmethyl]-amino}-phenyl)-butan-1-one], the EC50 was < 1000 nM.
As for `CCN1Cc2cc(OCc3c[nH]nc3-c3ccccc3)ccc2C1=O` [Example 563, 2-Ethyl-5-(3-phenyl-1H-pyrazol-4-ylmethoxy)-2,3-dihydro-isoindol-1-one], the EC50 was < 1000 nM.
With `CCCCN1Cc2cc(OCc3c[nH]nc3-c3cccc(C(F)(F)F)c3)ccc2C1=O` [Example 545, 2-Butyl-5-[3-(3-trifluoromethyl-phenyl)-1H-pyrazol-4-ylmethoxy]-2,3-dihydro-isoindol-1-one] the figure was < 1000 nM.
Turning to `CCCC(=O)c1ccc(NCc2n[nH]cc2-c2ccc(C(F)(F)F)cc2)cc1` [Example 517, 1-(4-{[4-(4-Trifluoromethyl-phenyl)-1H-pyrazol-3-ylmethyl]-amino}-phenyl)-butan-1-one], the EC50 was < 1000 nM.
Consider `CCCC(=O)c1ccc(OCc2c[nH]nc2-c2ccc(F)cc2)cc1` [Example 495, 1-{4-[3-(4-Fluorophenyl)-1H-pyrazol-4-ylmethoxy]-phenyl}-butan-1-one], for which the EC50 was < 1000 nM.
On to `CCCN1Cc2cc(OCc3c[nH]nc3-c3ccccc3)ccc2C1=O` [Example 537, 5-(3-Phenyl-1H-pyrazol-4-ylmethoxy)-2-propyl-2,3-dihydro-isoindol-1-one], for which the EC50 was < 1000 nM.
With `COc1ccccc1Oc1ccc(NCc2c[nH]nc2-c2ccc(C(F)(F)F)cc2)cc1` [Example 83, [4-(2-Methoxy-phenoxy)-phenyl]-[3-(4-trifluoromethylphenyl)-1H-pyrazol-4-ylmethyl]-amine] the figure was < 1000 nM.
The value for `CCCC(=O)c1ccc(NCc2cn(-c3ccccc3)nc2-c2ccc(F)cc2)cc1` [Example 221, 1-(4-{[3-(4-Fluorophenyl)-1-phenyl-1H-pyrazol-4-ylmethyl]-amino}-phenyl)-butan-1-one] was 1000 to 10000 nM; that for `O=C1c2ccc(OCc3c[nH]nc3-c3ccc(Cl)c(Cl)c3)cc2CN1CCCC(F)(F)F` [Example 554, 5-[3-(3,4-dichloro-phenyl)-1H-pyrazol-4-ylmethoxy]-2-(4,4,4-trifluoro-butyl)-2,3-dihydro-isoindol-1-one] was < 1000 nM.
With `CC(C)CCOc1ccc(NCc2c[nH]nc2C(C)(C)C)cc1` [Example 298, (3-tert-Butyl-1H-pyrazol-4-ylmethyl)-[4-(3-methyl-butoxy)-phenyl]-amine], the EC50 was in the range of 1000 to 10000 nM.
Turning to `CCCN1Cc2cc(NCc3c[nH]nc3-c3cccc(C(F)(F)F)c3)ccc2C1=O` [Example 578], the EC50 was < 1000 nM.
The value for `CCCC(=O)c1ccc(NCc2cc(-c3ccccc3F)no2)cc1` [Example 255, 1-(4-{[3-(2-Fluorophenyl)-isoxazol-5-ylmethyl]-amino}-phenyl)-butan-1-one] was 1000 to 10000 nM; that for `O=C1c2ccc(OCc3c[nH]nc3-c3cccc(F)c3)cc2CN1CC(F)(F)F` [Example 571, 5-[3-(3-Fluorophenyl)-1H-pyrazol-4-ylmethoxy]-2-(2,2,2-trifluoro-ethyl)-2,3-dihydro-isoindol-1-one] was < 1000 nM.
